Assay results as given in PubChem BioAssay (NCI).
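Cultured in 96-well plates, cells were exposed to test compound for 48 hours across five concentrations. TGI marks complete inhibition of growth.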

How the values were obtained:
Assay in all cases: growth of human tumour cells (NCI), 48 h
[1] = test system: CCRF-CEM leukemia
[2] = test system: COLO 205 colon
[3] = test system: HCT-116 colon
[4] = test system: MALME-3M melanoma
[5] = test system: MDA-MB-435
[6] = test system: MDA-N
[7] = test system: MOLT-4 leukemia
[8] = test system: NCI-H460 lung
[9] = test system: OVCAR-5 ovarian
[10] = test system: OVCAR-8 ovarian
[11] = test system: SF-539 CNS
[12] = test system: SK-MEL-5 melanoma
[13] = test system: SK-OV-3 ovarian

Compound	TGI [1] [µM]	TGI [2] [µM]	TGI [3] [µM]	TGI [4] [µM]	TGI [5] [µM]	TGI [6] [µM]	TGI [7] [µM]	TGI [8] [µM]	TGI [9] [µM]	TGI [10] [µM]	TGI [11] [µM]	TGI [12] [µM]	TGI [13] [µM]
Cc1ccc(O)c(C2=NNC(c3cccc(Cl)c3)C2)c1 (configuration not stated)	> 100	> 100	> 100	> 100	44.5	88.1	> 100	> 100	> 100	> 100	> 100	> 100	> 100
COC(=O)[C@@H]1[C@H]2CC[C@]3(C)[C@@H](OC(C)=O)CC[C@H]3[C@@H]2CC[C@H]1C(C)=O	> 100	> 100	> 100	> 100	> 100	> 100	> 100	> 100	> 100	> 100	> 100	> 100	> 100
Cc1ccc(CN2CCN(Cc3ccc(C)o3)C(C)C2)o1 (configuration not stated)	> 100	> 100	> 100	> 100	> 100	> 100	> 100	> 100	> 100	> 100	> 100	> 100	> 100
COc1cc(-c2ccccc2)cn2c1nc1ccccc12	70.7	39.1	39.5	41.9	43.4	37.3	45.9	49.4	31.7	64.4	50.4	37.9	59.7
CC1N=C(c2ccccc2)OC1=O (configuration not stated)	> 100	> 100	> 100	> 100	> 100	> 100	> 100	> 100	> 100	> 100	> 100	> 100	> 100
CC1(C)CCC[C@@]2(C)C1CC[C@@]1(CO1)[C@@H]2/C=C\C(C=O)CC=O (some centres not stated)	> 68.7	> 100	> 100	> 100	> 100	> 100	62.2	> 100	> 100	> 100	> 100	> 100	> 100
COC1(OC)C2C=CC1C([C@](C)(N)CO)C2 (some centres not stated)	> 100	> 100	> 100	> 100	> 100	> 100	> 100	> 100	> 100	> 100	> 100	> 100	> 100
COC(=O)C1=COC2OC3CC1C2C(C)O3 (configuration not stated)	> 100	> 100	> 100	> 100	> 100	> 100	> 100	> 100	> 100	> 100	> 100	> 100	> 100
O=C(CCN1CCCC1)c1ccc(Oc2ccc(F)cc2)cc1	46.7	56.7	> 100	> 100	> 100	> 100	43.3	> 100	> 100	> 100	> 100	> 100	> 100
COC(=O)[C@H](C)N(C)C(=O)[C@H](C)N1[C@@H](c2ccccc2)COC1(C)C	> 100	> 100	> 100	> 100	> 100	> 100	> 100	> 100	> 100	> 100	> 100	> 100	> 100
COc1ccc(C2=NN(C(=O)c3ccc(Cl)cc3)C(O)(c3cc(F)c(Cl)cc3Cl)C2)cc1 (configuration not stated)	> 100	> 100	> 100	> 100	> 100	> 100	> 100	> 100	> 100	> 100	> 100	> 100	> 100
C1=Cc2cccc3occ(c23)C=C1	49.9	90.7	> 100	> 100	> 100	> 100	79.4	> 100	> 100	> 100	> 100	> 100	> 100
Cn1c(N)c(/C=C/C(=O)Oc2ccccc2)c(=O)n(C)c1=O	> 100	> 100	> 100	> 100	> 100	> 100	> 100	> 100	> 100	> 100	> 100	> 100	> 100
Cc1nn(C(=O)c2ccc(Cl)cc2)c2c1C(c1ccc(Cl)cc1)SC(N)=N2 (configuration not stated)	> 10	> 10	> 10	> 10	> 10	> 10	> 10	> 10	> 10	> 10	> 10	> 10	> 10
